Where two headings read alike, the source gives them in different places.
Assays:
Assay in all cases: BROMOscan ligand-binding assay
[1] = biological target: T1, BRD1 (Homo sapiens, UniProt O95696)
T1 sequence (O95696 562-666 limits assumed): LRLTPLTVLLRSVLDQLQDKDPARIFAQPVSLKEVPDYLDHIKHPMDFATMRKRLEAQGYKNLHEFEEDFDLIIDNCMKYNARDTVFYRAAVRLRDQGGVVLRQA
Text: (§1) BROMOscan is a binding assay based on the well-known KINOMEscan technology. This assay measures the binding of a DNA-tagged bromodomain to an immobilized BRD ligand. If an inhibitor is present, it will compete with the bromodomain binding to the immobilized ligand, resulting in reduction of a quantitative PCR (qPCR) signal in a dose-dependent manner.

[2] = biological target: BRD2(2) (Homo sapiens, UniProt P25440)
Text: as §1

[3] = biological target: BRD3(1) (Homo sapiens, UniProt Q15059)
Text: as §1

[4] = biological target: BRD3(1,2) (Homo sapiens, UniProt Q15059)
Text: as §1

[5] = biological target: BRD4(1) (Homo sapiens, UniProt O60885)
Text: as §1

[6] = biological target: T2, BRD7 (Homo sapiens, UniProt Q9NPI1)
T2 sequence (Q9NPI1 131-235 limits assumed): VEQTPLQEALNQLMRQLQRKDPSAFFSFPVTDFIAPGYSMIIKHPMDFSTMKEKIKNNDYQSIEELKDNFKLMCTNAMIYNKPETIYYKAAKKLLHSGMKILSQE
Text: as §1

[7] = biological target: BRD8(2) (Homo sapiens, UniProt Q9H0E9)
Text: as §1

[8] = biological target: BRDT(1) (Homo sapiens, UniProt Q58F21)
Text: as §1

[9] = biological target: BRDT(1,2) (Homo sapiens, UniProt Q58F21)
Text: as §1

[10] = biological target: T3, EP300 (Homo sapiens, UniProt Q09472)
T3 sequence (Q09472 1049-1156 limits assumed): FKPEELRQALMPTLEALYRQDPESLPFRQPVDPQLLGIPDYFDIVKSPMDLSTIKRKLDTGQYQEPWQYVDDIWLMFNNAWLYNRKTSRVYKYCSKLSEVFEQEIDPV
Text: as §1

[11] = biological target: FALZ (Homo sapiens, UniProt Q12830)
Text: as §1

[12] = biological target: T4, GCN5L2 (Homo sapiens, UniProt Q92830)
T4 sequence (Q92830 728-832 limits assumed): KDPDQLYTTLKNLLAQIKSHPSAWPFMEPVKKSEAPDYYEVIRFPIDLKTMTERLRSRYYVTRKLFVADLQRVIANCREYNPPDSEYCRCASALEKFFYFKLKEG
Text: as §1

[13] = biological target: PBRM1(5) (Homo sapiens, UniProt Q86U86)
Text: as §1

[14] = biological target: T5, PCAF (Homo sapiens, UniProt Q92831)
T5 sequence (Q92831 723-827 limits assumed): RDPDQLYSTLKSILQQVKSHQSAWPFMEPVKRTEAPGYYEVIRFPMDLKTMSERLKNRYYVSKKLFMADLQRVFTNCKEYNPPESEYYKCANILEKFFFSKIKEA
Text: as §1

[15] = biological target: SMARCA2 (Homo sapiens, UniProt P51531)
Text: as §1

[16] = biological target: SMARCA4 (Homo sapiens, UniProt P51532)
Text: as §1

[17] = biological target: T6, TAF1L(2) (Homo sapiens, UniProt Q8IZX4)
T6 sequence (Q8IZX4 1517-1626 limits assumed): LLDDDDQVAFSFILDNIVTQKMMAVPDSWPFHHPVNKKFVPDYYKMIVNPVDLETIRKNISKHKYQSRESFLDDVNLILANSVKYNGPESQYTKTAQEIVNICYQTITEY
Text: as §1

[18] = biological target: T7, TRIM24(PHD,BRD) (Homo sapiens, UniProt O15164)
T7 sequence (O15164 824-1006 limits assumed): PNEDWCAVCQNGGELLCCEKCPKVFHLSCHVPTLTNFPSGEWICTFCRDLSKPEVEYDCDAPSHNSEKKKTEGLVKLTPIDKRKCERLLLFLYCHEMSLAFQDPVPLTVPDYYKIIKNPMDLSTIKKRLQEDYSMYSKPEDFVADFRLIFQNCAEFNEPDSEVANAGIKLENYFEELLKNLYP
Text: as §1

[19] = biological target: T8, TRIM33(PHD,BRD) (Homo sapiens, UniProt Q9UPN9)
T8 sequence (Q9UPN9 882-1087 limits assumed): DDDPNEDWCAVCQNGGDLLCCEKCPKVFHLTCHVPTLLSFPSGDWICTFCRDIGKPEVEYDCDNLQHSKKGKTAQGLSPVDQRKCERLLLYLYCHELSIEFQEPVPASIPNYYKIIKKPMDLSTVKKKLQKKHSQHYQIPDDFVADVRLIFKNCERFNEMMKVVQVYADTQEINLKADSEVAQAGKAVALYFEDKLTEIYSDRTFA
Text: as §1

[20] = biological target: T9, BAZ2A (Homo sapiens, UniProt Q9UIF9)
T9 sequence (Q9UIF9 1793-1897 limits assumed): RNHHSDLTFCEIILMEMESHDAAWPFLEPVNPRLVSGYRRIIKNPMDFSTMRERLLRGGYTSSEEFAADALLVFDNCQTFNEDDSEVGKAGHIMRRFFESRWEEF
Text: as §1

[21] = biological target: T10, BAZ2B (Homo sapiens, UniProt Q9UIF8)
T10 sequence (Q9UIF8 2060-2164 limits assumed): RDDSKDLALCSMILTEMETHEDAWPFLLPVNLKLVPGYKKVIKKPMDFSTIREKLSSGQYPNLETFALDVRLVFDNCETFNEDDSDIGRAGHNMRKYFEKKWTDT
Text: as §1

[22] = KD, BROMOscan Gene Symbol BRD3(1)
[23] = KD, BROMOscan Gene Symbol BRD3(1,2)
[24] = KD (BROMOscan), sheet prints no unit (nM)
[25] = KD, BROMOscan Gene Symbol BRD8(2)
[26] = KD, BROMOscan Gene Symbol BRDT(1)
[27] = KD, BROMOscan Gene Symbol BRDT(1,2)

Sequence of BRD3(1,2) (Q15059 24-416 limits assumed): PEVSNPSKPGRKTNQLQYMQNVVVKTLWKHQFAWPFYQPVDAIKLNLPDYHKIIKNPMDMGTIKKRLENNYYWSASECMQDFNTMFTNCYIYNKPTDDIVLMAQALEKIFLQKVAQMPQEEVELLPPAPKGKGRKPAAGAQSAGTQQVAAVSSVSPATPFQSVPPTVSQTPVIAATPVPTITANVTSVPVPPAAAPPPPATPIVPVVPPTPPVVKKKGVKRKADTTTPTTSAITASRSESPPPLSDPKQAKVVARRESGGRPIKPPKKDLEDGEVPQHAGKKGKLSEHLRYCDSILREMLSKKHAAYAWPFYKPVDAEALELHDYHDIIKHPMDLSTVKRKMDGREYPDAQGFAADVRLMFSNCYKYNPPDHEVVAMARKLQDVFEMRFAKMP
Sequence of BRD8(2) (Q9H0E9 1099-1207 limits assumed): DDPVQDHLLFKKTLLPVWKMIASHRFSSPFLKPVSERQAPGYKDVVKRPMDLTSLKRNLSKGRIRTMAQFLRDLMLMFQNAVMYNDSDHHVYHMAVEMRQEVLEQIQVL
Sequence of SMARCA4 (P51532 1453-1564 limits assumed): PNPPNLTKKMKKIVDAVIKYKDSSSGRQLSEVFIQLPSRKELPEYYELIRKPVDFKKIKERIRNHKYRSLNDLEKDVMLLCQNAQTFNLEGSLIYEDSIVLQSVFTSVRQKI
Sequence of SMARCA2 (P51531 1-1572 isoform P51531-2): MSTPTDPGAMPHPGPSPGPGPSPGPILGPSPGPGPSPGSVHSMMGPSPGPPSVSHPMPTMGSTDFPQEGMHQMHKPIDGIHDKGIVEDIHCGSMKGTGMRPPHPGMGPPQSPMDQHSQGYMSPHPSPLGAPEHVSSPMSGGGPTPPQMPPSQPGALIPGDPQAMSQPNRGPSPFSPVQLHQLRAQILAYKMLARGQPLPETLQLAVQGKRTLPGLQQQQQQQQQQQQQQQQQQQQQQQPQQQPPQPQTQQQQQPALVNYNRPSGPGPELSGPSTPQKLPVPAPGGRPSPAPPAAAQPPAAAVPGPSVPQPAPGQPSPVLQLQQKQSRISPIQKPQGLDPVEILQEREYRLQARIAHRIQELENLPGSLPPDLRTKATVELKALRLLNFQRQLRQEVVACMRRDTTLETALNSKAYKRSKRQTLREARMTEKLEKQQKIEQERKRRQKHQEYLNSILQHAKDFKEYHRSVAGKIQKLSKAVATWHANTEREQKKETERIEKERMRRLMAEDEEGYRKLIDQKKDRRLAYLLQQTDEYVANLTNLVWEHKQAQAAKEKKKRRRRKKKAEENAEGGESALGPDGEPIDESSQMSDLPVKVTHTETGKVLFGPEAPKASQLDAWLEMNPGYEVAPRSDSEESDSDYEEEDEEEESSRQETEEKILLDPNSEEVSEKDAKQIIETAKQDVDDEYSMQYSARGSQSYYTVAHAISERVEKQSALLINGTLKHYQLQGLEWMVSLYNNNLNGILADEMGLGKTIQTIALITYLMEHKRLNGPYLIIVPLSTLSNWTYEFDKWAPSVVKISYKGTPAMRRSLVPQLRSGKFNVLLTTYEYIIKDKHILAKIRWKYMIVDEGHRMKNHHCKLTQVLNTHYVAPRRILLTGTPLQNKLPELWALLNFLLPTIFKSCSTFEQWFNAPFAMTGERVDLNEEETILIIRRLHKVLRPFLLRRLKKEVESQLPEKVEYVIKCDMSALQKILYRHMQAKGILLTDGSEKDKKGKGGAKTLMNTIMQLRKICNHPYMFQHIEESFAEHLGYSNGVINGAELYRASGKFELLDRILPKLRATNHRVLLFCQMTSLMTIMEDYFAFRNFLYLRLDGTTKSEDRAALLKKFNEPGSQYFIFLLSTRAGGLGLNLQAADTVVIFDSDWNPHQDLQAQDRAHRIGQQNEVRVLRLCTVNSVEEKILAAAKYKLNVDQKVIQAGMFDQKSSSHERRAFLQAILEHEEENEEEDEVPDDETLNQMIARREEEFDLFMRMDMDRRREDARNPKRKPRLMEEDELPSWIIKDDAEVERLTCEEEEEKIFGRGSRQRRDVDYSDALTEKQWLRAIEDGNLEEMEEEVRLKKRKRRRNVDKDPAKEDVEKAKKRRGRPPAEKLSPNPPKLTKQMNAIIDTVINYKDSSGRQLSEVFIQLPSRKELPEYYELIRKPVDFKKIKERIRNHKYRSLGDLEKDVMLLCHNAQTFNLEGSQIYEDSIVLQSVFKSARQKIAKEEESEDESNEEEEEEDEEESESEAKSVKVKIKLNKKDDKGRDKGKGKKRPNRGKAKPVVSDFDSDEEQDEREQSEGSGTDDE
Sequence of BRD3(1) (Q15059 34-140 limits assumed): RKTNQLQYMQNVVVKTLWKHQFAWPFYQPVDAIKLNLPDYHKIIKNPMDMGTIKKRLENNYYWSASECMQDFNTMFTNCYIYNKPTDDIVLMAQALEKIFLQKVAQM
Sequence of PBRM1(5) (Q86U86 653-763 limits assumed): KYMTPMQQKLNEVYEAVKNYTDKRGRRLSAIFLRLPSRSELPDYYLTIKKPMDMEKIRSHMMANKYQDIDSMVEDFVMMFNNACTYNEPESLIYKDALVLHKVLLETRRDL
Sequence of BRD2(2) (P25440 344-453 limits assumed): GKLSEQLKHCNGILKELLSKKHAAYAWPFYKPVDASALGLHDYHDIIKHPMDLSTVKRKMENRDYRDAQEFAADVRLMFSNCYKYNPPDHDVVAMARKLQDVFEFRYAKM

CCCOc1ccn2c(C(C)=O)cc(-c3ccccc3S(C)(=O)=O)c2c1 [GSK2801]
Kd [1]: 60 µM | Kd [2]: 22 µM | Kd [3, 22]: 34 µM | Kd [4, 23]: 17 µM | Kd [5]: 74 µM | Kd ([6]; KD, BROMOscan Gene Symbol BRD7): 22 µM | Kd [7, 24]: > 30000 nM | Kd [7, 25]: > 100000 nM | Kd [8, 26]: 30 µM | Kd [9, 27]: 52 µM | Kd ([10]; KD, BROMOscan Gene Symbol EP300): 70 µM | Kd ([11]; KD, BROMOscan Gene Symbol FALZ): 95 µM | Kd [12, 24]: > 30000 nM | Kd ([12]; KD, BROMOscan Gene Symbol GCN5L2): > 100000 nM | Kd [13, 24]: > 30000 nM | Kd ([13]; KD, BROMOscan Gene Symbol PBRM1(5)): > 100000 nM | Kd [14, 24]: > 30000 nM | Kd ([14]; KD, BROMOscan Gene Symbol PCAF): > 100000 nM | Kd [15, 24]: > 30000 nM | Kd ([15]; KD, BROMOscan Gene Symbol SMARCA2): > 100000 nM | Kd [16, 24]: > 30000 nM | Kd ([16]; KD, BROMOscan Gene Symbol SMARCA4): > 100000 nM | Kd [17]: 5.1 µM | Kd ([18]; KD, BROMOscan Gene Symbol TRIM24(PHD,Bromo.)): 33 µM | Kd [19, 24]: > 30000 nM | Kd ([19]; KD, BROMOscan Gene Symbol TRIM33(PHD,Bromo.)): > 100000 nM

CCC(=O)N1CCOc2c(cc(-c3ccc(OC)c(OC)c3)cc2OCC2CCCN(C)C2)C1 (stereo not drawn) [I-CBP112]
Kd [20]: 70 µM | Kd ([21]; KD, BROMOscan Gene Symbol BAZ2B): 28 µM | Kd [1]: 51 µM | Kd [2]: 26 µM | Kd [3, 22]: 5.4 µM | Kd [4, 23]: 6.3 µM | Kd [5]: 2.9 µM | Kd ([6]; KD, BROMOscan Gene Symbol BRD7): 7.6 µM | Kd [7, 24]: > 30000 nM | Kd [7, 25]: > 100000 nM | Kd [8, 26]: 4.2 µM | Kd [9, 27]: 9.6 µM | Kd ([10]; KD, EP300): 0.12 µM | Kd ([11]; KD, FALZ): 5.5 µM | Kd [12, 24]: > 30000 nM | Kd ([12]; KD, GCN5L2): > 100000 nM | Kd [13, 24]: > 30000 nM | Kd ([13]; KD, PBRM1(5)): > 100000 nM | Kd ([14]; KD, PCAF): 77000 nM | Kd [15, 24]: > 30000 nM | Kd ([15]; KD, SMARCA2): > 100000 nM | Kd [16, 24]: > 30000 nM | Kd ([16]; KD, SMARCA4): > 100000 nM | Kd [17]: 52 µM | Kd ([18]; KD, TRIM24(PHD,Bromo.)): 14 µM | Kd [19, 24]: > 30000 nM | Kd ([19]; KD, TRIM33(PHD,Bromo.)): > 100000 nM

O=C(C=CN1[C@H]2CC[C@@H]1c1ncnc(NC3CC3)c1C2)c1ccccc1O [PFI-3 D1]
Kd ([20]; BROMOscan, BAZ2A): > 30 µM | Kd ([21]; BROMOscan, BAZ2B): > 30 µM | Kd ([1]; BROMOscan, BRD1): > 30 µM | Kd ([2]; BROMOscan, BRD2(2)): > 30 µM | Kd ([3]; BROMOscan, BRD3(1)): > 30 µM | Kd ([4]; BROMOscan, BRD3(1,2)): > 30 µM | Kd ([5]; BROMOscan, BRD4(1)): 27 µM | Kd ([6]; BROMOscan, BRD7): > 30 µM | Kd ([7]; BROMOscan, BRD8(2)): > 30000 nM | Kd ([8]; BROMOscan, BRDT(1)): 24 µM | Kd ([9]; BROMOscan, BRDT(1,2)): > 30 µM | Kd ([10]; BROMOscan, EP300): > 30 µM | Kd ([11]; BROMOscan, FALZ): > 30 µM | Kd ([12]; BROMOscan, GCN5L2): 23000 nM | Kd ([13]; BROMOscan, PBRM1(5)): 36 nM | Kd ([14]; BROMOscan, PCAF): > 30000 nM | Kd ([15]; BROMOscan, SMARCA2): 49 nM | Kd ([16]; BROMOscan, SMARCA4): 46 nM | Kd ([17]; BROMOscan, TAF1L(2)): > 30 µM | Kd ([18]; BROMOscan, TRIM24(PHD,Bromo.)): > 30 µM | Kd ([19]; BROMOscan, TRIM33(PHD,Bromo.)): > 30000 nM

O=C(O)c1ccccc1O [Salicylic Acid]
Kd [20]: > 14000 µM | Kd ([21]; KD, BAZ2B): > 14000 µM | Kd [1]: > 14000 µM | Kd [2]: > 14000 µM | Kd [5]: > 14000 µM | Kd ([6]; KD, BRD7): > 14000 µM | Kd ([7]; KD, BRD8(2)): > 1.4e+07 nM | Kd ([8]; KD, BRDT(1)): > 14000 µM | Kd ([9]; KD, BRDT(1,2)): 6100 µM | Kd ([10]; KD, EP300): > 14000 µM | Kd ([11]; KD, FALZ): > 14000 µM | Kd ([12]; KD, GCN5L2): > 1.4e+07 nM | Kd ([13]; KD, PBRM1(5)): 160000 nM | Kd ([14]; KD, PCAF): > 1.4e+07 nM | Kd ([15]; KD, SMARCA2): 250000 nM | Kd ([16]; KD, SMARCA4): 320000 nM | Kd [17]: > 14000 µM | Kd ([18]; KD, TRIM24(PHD,Bromo.)): > 14000 µM | Kd ([19]; KD, TRIM33(PHD,Bromo.)): > 1.4e+07 nM

From article PMC6478789, “A chemical toolbox for the study of bromodomains and epigenetic signaling” (Nature Communications, 2019)
